Measured values reported in patent US20160015786A1, “MOBILIZING AGENTS AND USES THEREFOR” (MATER MEDICAL RESEARCH INSTITUTE LIMITED, priority 2013, published 2016).

Assays:
HIF-1α protein = test: Western blot of bone marrow cell lysates for HIF-1α stabilization in treated mice; type: in vivo, C57Bl/6 mice; settings: FIG. 1A
Excerpt: FIGS. 1A, 1B, 1C, and 1D are graphical representations showing the effect of Compound X and G-CSF on HIF-1α protein and CFC mobilization. (1A) Western blot analysis of bone marrow (BM) cell lysates from mice treated with saline (Saline), with Compound X for 3 days (X3), with G-CSF for 2 days (G2) or with both Compound X and G-CSF (G2X3) for presence of HIF-1α and β-actin. Each lane represents a different mouse. […] (1D) Time-course numbers of CFC per mL blood or per spleen for mice treated with Plerixafor with or without Compound X. Mice were treated with Plerixafor for 1 hour (P1) together with Compound X for 1, 2, 3 or 4 days (P1X1-P1X4). Data are mean±SD of 6 mice per condition. * p<0.05; ** p<0.01; *** p<0.001.
To evaluate whether pharmacological stabilization of HIF-1α protein would enhance HSC mobilization in response to G-CSF, C57Bl/6 mice were treated with recombinant human G-CSF (rhuG-CSF) twice daily for 1-3 days together with a PHD inhibitor, Compound X, daily for 3 days. […] Mobilization of colony-forming cells (CFCs) to the blood and spleen were measured (FIG. 1B). […] To assess the optimum duration of Compound X treatment, Compound X was administered for 1-4 days and G-CSF for the last 2 days before tissue sampling (FIG. 1C).
All procedures were approved by the animal experimentation ethics committee of the University of Queensland. […]

[1] = test system: competitive repopulating HSC; test: Long-term competitive repopulation assay of mobilized blood; type: in vivo, C57BL/6 mice
Method: FIGS. 3A and 3B are graphical representations showing that Compound X synergizes with G-CSF and Plerixafor to enhance mobilization of competitive repopulating HSCs. CD45.2^+ mice were mobilized with G-CSF for 2 or 4 days with G-CSF alone (filled circles), with G-CSF in combination with Plerixafor for 1 hr (filled triangles), with Compound X for 3 days (filled squares) or with both Plerixafor, 1 hr, and Compound X, 3 days (filled inverted triangles). Blood (20 μL) was transplanted in lethally irradiated recipients together with 200,000 competitive BM cells from CD45.1^+ mice. Proportion of blood CD45.2+ leukocytes at 16 weeks post-transplantation and number of repopulating units per mL of mobilized blood calculated from donor chimerism at 16 weeks post-transplantation from (3A) 2 days treatment with G-CSF and (3B) 4 days treatment with G-CSF. Each dot is a result from one recipient mouse, bars are average. *: p<0.05; ** 0.001<p<0.01; *** p<0.001.
This synergistic increase in HSC mobilization was further confirmed in long-term competitive repopulation assays following transplantation of 20 μL mobilized blood in competition with 2×10^5 BM cells from congenic donors. […] The number of mobilized long-term competitive repopulating HSC (measured 16 weeks post-transplant) doubled after treatment with 2 days G-CSF+1 h Plerixafor+3 days Compound X (G2P1X3) compared to G-CSF+Plerixafor (G2P1, p<0.05; FIG. 3A). […] The addition of Compound X to G-CSF (G4X3) increased 6-fold the number of mobilized repopulating units compared to G-CSF (G4) alone (P<0.001; FIG. 3B). The combination of Compound X with G-CSF and Plerixafor (G4P1X3) increased mobilization of repopulating units 3-fold compared to G-CSF+Plerixafor (G4P1) alone (P<0.001; FIG. 3B).
The content of mobilized blood samples in competitive repopulating HSC was determined in competitive repopulation assays as previously described (12,17). The day prior to blood harvest, recipient congenic B6.SJL CD45.1^+ female mice were lethally irradiated with 11.0Gy in two split doses 4 hours apart. 50 μL blood samples from 6 mobilized CD45.2^+ C57BL/6 donor mice were pooled within each treatment group and 20 μL blood aliquots were taken from this pool and mixed with 200,000 competitive whole BM cells from untreated B6.SJL CD45.1^+ in a total volume of 200 μL saline, and injected retro-orbitally into each lethally irradiated recipient. Recipients were maintained with antibiotics for the first 3 weeks post-transplant and tail bled 8, 12 and 16 weeks post-transplant to determine CD45.2 (test donor blood) versus CD45.1 (competitive whole BM cells) chimerism in myeloid, B and T lineages by flow cytometry using CD45.1-PE, CD45.2-allophycocyanin (APC), CD3-FITC, B220-allophycocyanin (APC)-cyanin (CY) 7, CD11b-PECY7, Ly6G-Pacific Blue. Content in repopulating units (RU) was calculated as previously described (18-19).

**Q.** How did the “stabilization of HIF-1α protein in bone marrow leukocytes” value (HIF-1α protein; Compound X daily for 3 days) turn out when `O=C(O)CNC(=O)c1ncc2cc(Sc3ccccc3)ccc2c1O` [Compound X, [(4-Hydroxy-7-phenylsulfanyl-isoquinoline-3-carbonyl)-amino]-acetic acid] was run?
**A.** Its value is “stabilization of HIF-1α protein was demonstrated”.

**Q.** And the “stabilization of HIF-1α protein compared to G-CSF alone” value (HIF-1α protein; Compound X in combination with G-CSF)?
**A.** Its value is “significantly increased”.

**Q.** What about the “number of mobilized long-term competitive repopulating HSC versus G-CSF+Plerixafor” value ([1]; 16 weeks post-transplant, G2P1X3 vs G2P1, p<0.05, FIG. 3A) of the same compound?
**A.** Its value is “doubled”.

**Q.** What about the “competitive repopulating HSC mobilized (CD45.2/CD45.1 chimerism) versus G-CSF+Plerixafor” value ([1]; 2 days G-CSF+Plerixafor+Compound X (G2P1X3) vs G2P1, p<0.01) of the same compound?
**A.** The value was 6 fold.

**Q.** And the “number of long-term repopulating HSC per mL of blood” value ([1]; Compound X in combination with G-CSF and Plerixafor (discussion))?
**A.** The value was “tripled”.

**Q.** And the “increase in mobilization of repopulating units versus G-CSF+Plerixafor” value ([1]; G4P1X3 vs G4P1, P<0.001, FIG. 3B)?
**A.** The value was 3 fold.

**Q.** What about the “increase in number of mobilized repopulating units versus G-CSF alone” value ([1]; G-CSF 4 days + Compound X (G4X3) vs G4, P<0.001, FIG. 3B) of the same compound?
**A.** Its value is 6 fold.
